The subject of this experiment is primary rat mixed cortical cells. Kind of experiment: In vitro myelination assay (MBP positive myelin strands, fold myelin pixels above background). The format is cell-based. The note with it: Rattus norvegicus; for fold induction at 1 µM: 1.0 μM compound; for fold induction at 10 µM: 10.0 μM compound. Summed up: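 Fourteen-day treatment of primary P1 rat mixed cortical cultures, re-dosed at days 6 and 10, at 1.0 μM and 10.0 μM. MBP immunofluorescence was imaged at 10× and myelin strands quantified by software, normalised to untreated wells as fold above background.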

Setting [1] is: read-out: Fold myelin pixels above background relative to baseline of no added compound.
Setting [2] is: relative to baseline of no added compound, read-out: Fold myelin pixels above background.
The mark [3] stands for this setting: relative to baseline of no added compound, read-out: Fold myelin pixels above background, 1.0 μM.
Where [4] appears, read: relative to baseline of no added compound, read-out: Fold myelin pixels above background, 10.0 μM.

Read-outs that look alike come from different tables or passages of the source.

Consider `CCN(CC)C(=O)C1CN(c2cc(C)cc(Nc3ncn(-c4cc(F)cc(F)c4)n3)c2)C1` [Compound 817, 1-[3-[[1-(3,5-difluorophenyl)-1,2,4-triazol-3-yl]amino]-5-methyl-phenyl]-N,N-diethyl-azetidine-3-carboxamide], for which, under setting [1], the fold induction at 1 µM is 10 to 100 and the fold induction at 10 µM fell in the range of 10 to 100.
Take `Cc1cc(Nc2ncn(-c3cc(F)cc(F)c3)n2)cc(N2CCC(N3CCN(C)CC3)CC2)c1` [Compound 772, 1-(3,5-difluorophenyl)-N-[3-methyl-5-[4-(4-methylpiperazin-1-yl)-1-piperidyl]phenyl]-1,2,4-triazol-3-amine]: under setting [2], the fold induction at 1 µM lay in the range of 1 to 10 and the fold induction at 10 µM is no more than 1.
With `[2H]C1([2H])N(CC)C([2H])([2H])C([2H])([2H])N(c2cc(C)cc(Nc3ncn(-c4cc(F)cc(F)c4)n3)c2)C1([2H])[2H]` [Compound 947, 1-(3,5-difluorophenyl)-N-[3-methyl-5-(2,2,3,3,5,5,6,6-octadeuterio-4-ethyl-piperazin-1-yl)phenyl]-1,2,4-triazol-3-amine], under setting [1], the fold induction at 1 µM was 1 to 10 and the fold induction at 10 µM was no more than 1.
`Cc1cc(Nc2ncn(-c3cc(C)ccc3F)n2)cc(N2CCN(C3COC3)CC2)c1` [Compound 476, 1-(2-fluoro-5-methyl-phenyl)-N-[3-methyl-5-[4-(oxetan-3-yl)piperazin-1-yl]phenyl]-1,2,4-triazol-3-amine]: under setting [2], the fold induction at 1 µM is 10 to 100 and the fold induction at 10 µM is 10 to 100.
With `Cc1cc(Nc2ncn(-c3cc(F)cc(F)c3)n2)cc(N2CCOC(CO)C2)c1` (centres unmarked) [Compound 1073, [4-[3-[[1-(3,5-difluorophenyl)-1,2,4-triazol-3-yl]amino]-5-methyl-phenyl]morpholin-2-yl]methanol], under setting [1], the fold induction at 1 µM is 10 to 100 and the fold induction at 10 µM was no more than 1.
Regarding `C1=C(c2cc(Nc3ncn(-c4ccccc4)n3)cc(C3=CCOCC3)c2)CCOC1` [Compound 315, N-[3,5-bis(3,6-dihydro-2H-pyran-4-yl)phenyl]-1-phenyl-1,2,4-triazol-3-amine], under setting [3], the fold induction at 1 µM is 100 to 1000. Besides, under setting [4], the fold induction at 10 µM fell in the range of 100 to 1000.
As to `Fc1cc(Nc2ncn(-c3ccc(F)c(F)c3)n2)cc(N2CCOCC2)c1` [Compound 440, 1-(3,4-difluorophenyl)-N-(3-fluoro-5-morpholino-phenyl)-1,2,4-triazol-3-amine], under setting [2], the fold induction at 1 µM was 10 to 100 and the fold induction at 10 µM was 10 to 100.
Consider `Cc1cc(Nc2ncn(-c3cc(F)cc(F)c3)n2)cc([C@]2(C)CNC(=O)O2)c1` (single isomer, unassigned) [Compound 655], for which, under setting [2], the fold induction at 1 µM is 10 to 100 and the fold induction at 10 µM is no more than 1.
As to `Cc1cc(Nc2ncn(-c3cc(F)cc(F)c3)n2)cc(N2CCC3(CCOC3)CC2)c1` [Compound 814, 1-(3,5-difluorophenyl)-N-[3-methyl-5-(2-oxa-8-azaspiro[4.5]decan-8-yl)phenyl]-1,2,4-triazol-3-amine], under setting [1], the fold induction at 1 µM fell in the range of 10 to 100 and the fold induction at 10 µM lay in the range of 1 to 10.
Take `FC(F)c1cc(Nc2ncn(-c3ccccn3)n2)nc(N2CCN(C3COC3)CC2)c1` [Compound 532, 4-(difluoromethyl)-6-[4-(oxetan-3-yl)piperazin-1-yl]-N-[1-(2-pyridyl)-1,2,4-triazol-3-yl]pyridin-2-amine]: under setting [2], the fold induction at 1 µM was in the range of 10 to 100 and the fold induction at 10 µM lay within 10 to 100.
On to `Fc1cc(Nc2ncn(-c3ccccc3)n2)cc(N2CCCC2)c1` [Compound 336, N-(3-fluoro-5-pyrrolidin-1-yl-phenyl)-1-phenyl-1,2,4-triazol-3-amine], for which the fold induction at 1 µM under setting [3] lay in the range of 1 to 10. Further, the fold induction at 10 µM under setting [4] is no more than 1.
Turning to `[2H]C1([2H])N(C(=O)C2CC2)C([2H])([2H])C([2H])([2H])N(c2cc(Nc3ncn(-c4cc(F)cc(F)c4)n3)cc(C(F)F)c2)C1([2H])[2H]` [Compound 1041, cyclopropyl-[2,2,3,3,5,5,6,6-octadeuterio-4-[3-(difluoromethyl)-5-[[1-(3,5-difluorophenyl)-1,2,4-triazol-3-yl]amino]phenyl]piperazin-1-yl]methanone], under setting [1], the fold induction at 1 µM lay in the range of 1 to 10 and the fold induction at 10 µM is 1 to 10.
For the molecule `Cc1cc(Nc2ncn(-c3ccccc3)n2)cc(N2CCOCC2)c1` [Compound 45, N-(3-methyl-5-morpholino-phenyl)-1-phenyl-1,2,4-triazol-3-amine], the fold induction at 1 µM under setting [3] was 1000 to 10000. Besides, the fold induction at 10 µM under setting [4] lay within 100 to 1000.
Take `Fc1ccc(-n2cnc(Nc3cc(Cl)nc(N4CCOCC4)c3)n2)cc1F` [Compound 100, 2-chloro-N-[1-(3,4-difluorophenyl)-1,2,4-triazol-3-yl]-6-morpholino-pyridin-4-amine]: under setting [3], the fold induction at 1 µM lay within 100 to 1000. In addition, under setting [4], the fold induction at 10 µM lay within 100 to 1000.
`Cc1cc(Nc2ncn(-c3cc(F)cc(F)c3)n2)cc(N2CC(N3C4CCC3COC4)C2)c1` [Compound 746, 1-(3,5-difluorophenyl)-N-[3-methyl-5-[3-(3-oxa-8-azabicyclo[3.2.1]octan-8-yl)azetidin-1-yl]phenyl]-1,2,4-triazol-3-amine]: under setting [2], the fold induction at 1 µM was in the range of 10 to 100 and the fold induction at 10 µM was in the range of 10 to 100.
Consider `Cc1cc(Nc2ncn(-c3cc(F)cc(N4CC[C@@H](C(C)(C)O)C4)c3)n2)cc(N2CCN(C3COC3)CC2)c1` [Compound 318, 2-[(3R)-1-[3-fluoro-5-[3-[3-methyl-5-[4-(oxetan-3-yl)piperazin-1-yl]anilino]-1,2,4-triazol-1-yl]phenyl]pyrrolidin-3-yl]propan-2-ol], for which the fold induction at 1 µM under setting [3] was 10 to 100. Also, under setting [4], the fold induction at 10 µM is no more than 1.
As for `Cc1cc(Nc2ncn(-c3cccc(C(F)(F)F)c3)n2)nc(NC2CCOC2)c1` (centres unmarked) [Compound 600, 4-methyl-N2-tetrahydrofuran-3-yl-N6-[1-[3-(trifluoromethyl)phenyl]-1,2,4-triazol-3-yl]pyridine-2,6-diamine], under setting [2], the fold induction at 1 µM was in the range of 1 to 10 and the fold induction at 10 µM lay in the range of 10 to 100.
For `Cc1cc(Nc2ncn(-c3ccc(F)c(F)c3)n2)cc(N2CCN(C3(C)COC3)CC2)c1` [Compound 633, 1-(3,4-difluorophenyl)-N-[3-methyl-5-[4-(3-methyloxetan-3-yl)piperazin-1-yl]phenyl]-1,2,4-triazol-3-amine], under setting [2], the fold induction at 1 µM lay within 10 to 100 and the fold induction at 10 µM was in the range of 10 to 100.
As to `CC(C)(C)c1cc(Nc2ncn(-c3cncnc3)n2)cc(N2CCN(C3COC3)CC2)c1` [Compound 550, N-[3-tert-butyl-5-[4-(oxetan-3-yl)piperazin-1-yl]phenyl]-1-pyrimidin-5-yl-1,2,4-triazol-3-amine], under setting [2], the fold induction at 1 µM was in the range of 10 to 100 and the fold induction at 10 µM lay within 10 to 100.
Take `N#Cc1cc(Nc2ncn(-c3cc(F)cc(F)c3)n2)cc(N2CCOCC2)c1` [Compound 835, 3-[[1-(3,5-difluorophenyl)-1,2,4-triazol-3-yl]amino]-5-morpholino-benzonitrile]: under setting [1], the fold induction at 1 µM fell in the range of 1 to 10 and the fold induction at 10 µM lay within 10 to 100.
On to `Fc1ccc(-n2cnc(Nc3cc(C4CC4)nc(N4CCOCC4)c3)n2)cc1F` [Compound 88, 2-cyclopropyl-N-[1-(3,4-difluorophenyl)-1,2,4-triazol-3-yl]-6-morpholino-pyridin-4-amine], for which the fold induction at 1 µM under setting [3] was in the range of 1000 to 10000. Moreover, the fold induction at 10 µM under setting [4] was 1000 to 10000.
Turning to `Cc1cc(Nc2ncn(-c3cccc(F)c3)n2)cc(NC2CCN(C3COC3)C2)c1` (centres unmarked) [Compound 188, N3-[1-(3-fluorophenyl)-1,2,4-triazol-3-yl]-5-methyl-N1-[1-(oxetan-3-yl)pyrrolidin-3-yl]benzene-1,3-diamine], under setting [3], the fold induction at 1 µM was 100 to 1000. Besides, the fold induction at 10 µM under setting [4] was no more than 1.
For the molecule `Cc1cc(Nc2ncn(-c3cc(F)cc(F)c3)n2)nc(N2CCN(C)CC2)c1` [Compound 731, N-[1-(3,5-difluorophenyl)-1,2,4-triazol-3-yl]-4-methyl-6-(4-methylpiperazin-1-yl)pyridin-2-amine], under setting [2], the fold induction at 1 µM was 10 to 100 and the fold induction at 10 µM is no more than 1.
Consider `Cc1cc(Nc2ncn(-c3cc(F)cc(F)c3)n2)cc(N2CCN(CC3COCCO3)CC2)c1` (centres unmarked) [Compound 949, 1-(3,5-difluorophenyl)-N-[3-[4-(1,4-dioxan-2-ylmethyl)piperazin-1-yl]-5-methyl-phenyl]-1,2,4-triazol-3-amine], for which, under setting [1], the fold induction at 1 µM is 10 to 100 and the fold induction at 10 µM was in the range of 10 to 100.
Regarding `Cc1cc(Nc2ncn(-c3ccccc3)n2)cc(N2CCNCC2)c1` [Compound 159, N-(3-methyl-5-piperazin-1-yl-phenyl)-1-phenyl-1,2,4-triazol-3-amine], the fold induction at 1 µM under setting [3] lay within 1000 to 10000. Further, the fold induction at 10 µM under setting [4] was no more than 1.
For `Cc1cc(Nc2ncn(-c3ccc(F)c(F)c3)n2)cc(O[C@H]2CCCN(C3COC3)C2)c1` (single isomer, unassigned) [Compound 632], under setting [2], the fold induction at 1 µM was 10 to 100 and the fold induction at 10 µM is no more than 1.
In the case of `c1ccc(-n2cnc(Nc3cc(C4CCOC4)cc(N4CCOCC4)c3)n2)cc1` (centres unmarked) [Compound 165, N-(3-morpholino-5-tetrahydrofuran-3-yl-phenyl)-1-phenyl-1,2,4-triazol-3-amine], the fold induction at 1 µM under setting [3] fell in the range of 100 to 1000. The fold induction at 10 µM under setting [4] fell in the range of 10 to 100.
Consider `Cc1cc(Nc2ncn(-c3ccc(F)c(F)c3)n2)cc(OC2CCOC2)c1` (centres unmarked) [Compound 778, 1-(3,4-difluorophenyl)-N-(3-methyl-5-tetrahydrofuran-3-yloxy-phenyl)-1,2,4-triazol-3-amine], for which, under setting [2], the fold induction at 1 µM was in the range of 10 to 100 and the fold induction at 10 µM was in the range of 1 to 10.

The record behind these values is patent publication US10766869B2, “Triazoles for the treatment of demyelinating dieases” (Vertex Pharmaceuticals Incorporated, priority 2015, dated 2020).
